From publication PMC9697349, “Mouse Pharmacokinetics and In Vitro Metabolism of SH-11037 and SH-11008, Synthetic Homoisoflavonoids for Retinal Neovascularization” (Pharmaceutics, 2022)

How the values were obtained:
[1] = format: in vitro ADME; settings: BNPP 1 mM, 2 h preincubation; SH-11037 1 µM, mouse eye homogenate, 1 min
Description: (§1) Chemical inhibition assay was conducted in mouse, dog, and human plasma and mouse eye homogenate to identify the enzyme(s) involved in the hydrolysis of SH-11037. BW284c51 [16], DTNB [17], EPZ [18], and BNPP [19, 20] were used as selective inhibitors of acetylcholinesterase (AChE), paraoxonase 1 (PON1), butyrylcholinesterase (BchE), and carboxylesterase (CES), respectively. Mouse eyes (male ICR mouse, 8 weeks old) taken immediately after CO2 asphyxiation were homogenized by an electric tissue homogenizer (Tissue Master-125, Omni International, Kennesaw, GA, USA) in an equal amount of 0.1 M potassium phosphate buffer (pH 7.4) on ice. The resulting homogenate was then centrifuged at 3000× g for 20 min. The supernatant was stored at −80 °C until the experiment. DMSO stock solutions of the inhibitors (0.4, 4 and 40 mM) were mixed with plasma diluted 3-fold with 0.1 M phosphate buffer (pH 7.4) to a final volume of 160 μL and final inhibitor concentrations of 0.01, 0.1, and 1 mM. The supernatant of mouse eye homogenate was treated similarly with only BNPP as the inhibitor and a single inhibitor concentration of 1 mM. The resulting pre-incubation solutions were then incubated for 2 h at 37 °C in a shaking water bath. SH-11037 (40 μM) in 50 vol% aqueous CH3CN was mixed with the pre-incubation solutions to a final volume of 160 μL and a final concentration of 1 μM. The resulting solutions were then incubated at 37 °C in a shaking water bath. The incubations were terminated at selected times by adding 160 µL of ice-cold CH3CN containing glipizide (500 ng/mL) as the IS. The resulting mixture was vortexed, sonicated, and centrifuged at 3000× g for 20 min. Aliquots of the supernatant were subjected to LC-MS/MS analysis described below in Section 2.6.2.
(§2) The LC-MS/MS system consisted of Agilent 1290 Infinity HPLC system and Agilent 6530 Accurate-Mass Quadrupole Time-of-Flight (Q-TOF) mass spectrometer equipped with dual AJS ESI ion source (Agilent Technologies Korea, Seoul, Korea). Chromatographic separation was performed on an Agilent Eclipse Plus C18 column (2.1 × 100 mm, 3.5 μm) with a Phenomenex Security Guard C18 guard column (4 × 20 mm) maintained at 40 °C. The mobile phase consisted of 0.1% formic acid in deionized water (A) and 0.1% formic acid in CH3CN (B): 0~2 min 5% B, 2~7 min to 95% B, and 7~10 min 95% B. Total run time including a 5 min equilibration time was 15 min. The flow rate was 0.4 mL/min. The injection volume was 5 µL. The mass spectrometer was operated in a positive Auto MS/MS scan mode with a full scan mass range of m/z 100–1000, fragmentor voltage 150 V, and CE 30 eV, selecting the two most intense precursor ions for collision-induced dissociation. Putative metabolites were identified using Agilent Mass Hunter Metabolite ID software (ver.B.04.00) followed by manual interpretation of the spectral data. Chromatograms and mass spectra were extracted using Agilent Mass Hunter Qualitative Analysis software (ver. B.05.00).

[2] = test system: hydrolysis of SH-11037 in mouse plasma; format: in vitro ADME; settings: inhibitor 1 mM; SH-11037 1 µM, mouse plasma, 1 min, 37 °C
Description: as §1, §2

[3] = set-up: method as in PMID 30713251; settings: cited from earlier work

| Compound | effect of inhibitor on SH-11037 hydrolysis [1] | SH-11008 Formation (%) in presence of inhibitor [2] | oral absorption [3] | systemic clearance (CL) [3] |
| --- | --- | --- | --- | --- |
| O=[N+]([O-])c1ccc(OP(=O)(O)Oc2ccc([N+](=O)[O-])cc2)cc1 [BNPP, bis(4-nitrophenyl)phosphate, reference compound] | inhibited the hydrolysis nearly completely | completely inhibited |  |  |
| COc1ccc(CC2COc3cc(O)c(OC)c(O)c3C2=O)cc1O (stereo not shown) [cremastranone, Cremastranone] |  |  | poor | high |
